The text below walks through data of patent publication US7957909B2, “Identification, monitoring and treatment of disease and characterization of biological condition using gene expression profiles” (Source Precision Medicine, Inc., priority 1999, dated 2011).

The subject of series [1] is Inflammation Gene Expression Panel of Table 1. Briefly: Inflammation index of stable rheumatoid arthritis patients under three treatment regimens (FIGS. 21-23). It is filed as in vivo, human. As to conditions: for inflammation index compared to normal: 10 stable rheumatoid arthritis patients per treatment group. The source says:
(§1) FIG. 17A further illustrates the consistency of inflammatory gene expression, illustrated here with respect to 7 loci of (of the Inflammation Gene Expression Panel of Table 1), in a population of 44 normal, undiagnosed blood donors. For each individual locus is shown the range of values lying within ±2 standard deviations of the mean expression value, which corresponds to 95% of a normally distributed population. Notwithstanding the great width of the confidence interval (95%), the measured gene expression value (ΔCT)—remarkably—still lies within 10% of the mean, regardless of the expression level involved. As described in further detail below, for a given biological condition an index can be constructed to provide a measurement of the condition. This is possible as a result of the conjunction of two circumstances: (i) there is a remarkable consistency of Gene Expression Profiles with respect to a biological condition across a population and (ii) there can be employed procedures that provide substantially reproducible measurement of constituents in a Gene Expression Panel giving rise to a Gene Expression Profile, under measurement conditions wherein specificity and efficiencies of amplification for all constituents of the panel are substantially similar and which therefore provides a measurement of a biological condition. Accordingly, a function of the expression values of representative constituent loci of FIG. 17A is here used to generate an inflammation index value, which is normalized so that a reading of 1 corresponds to constituent expression values of healthy subjects, as shown in the right-hand portion of FIG. 17A.
This subject in fact was also on a regimen of an anti-inflammation steroid (prednisone) that was being tapered; within approximately one week after the inflammation index was sampled, the subject experienced a significant flare of clinical symptoms.

The test system of series [2] is IL1A, IL1B, TNF, IFNG and IL10. In words: Acute Inflammation Index from blood of a single patient treated for optic neuritis (FIG. 2). It is filed as in vivo, human. As to conditions: single patient with optic neuritis. From the text:
(§2) For measuring the amount of a particular RNA in a sample, we have used methods known to one of ordinary skill in the art to extract and quantify transcribed RNA from a sample with respect to a constituent of a Gene Expression Panel. (See detailed protocols below. Also see PCT application publication number WO 98/24935 herein incorporated by reference for RNA analysis protocols). Briefly, RNA is extracted from a sample such as a tissue, body fluid, or culture medium in which a population of a subject might be growing. For example, cells may be lysed and RNA eluted in a suitable solution in which to conduct a DNAse reaction. First strand synthesis may be performed using a reverse transcriptase. Gene amplification, more specifically quantitative PCR assays, can then conducted and the gene of interest size calibrated against a marker such as 18S rRNA (Hirayama et al., Blood 92, 1998: 46-52). Samples are measured in multiple duplicates, for example, 4 replicates. Relative quantitation of the mRNA is determined by the difference in threshhold cycles between the internal control and the gene of interest. In an embodiment of the invention, quantitative PCR is performed using amplification, reporting agents and instruments such as those supplied commercially by Applied Biosystems (Foster City, Calif.). […]

The test system of series [3] is Inflammation Gene Expression Panel of Table 1. In words: Inflammatory gene expression in whole blood of a human subject after a single oral dose of prednisone (FIG. 14). It is filed as in vivo.
Text: as §2

The test system of series [4] is 5 genes (of the Inflammation Gene Expression Panel of Table 1). In words: Gene expression in whole blood samples from a subject given prednisone, challenged with lipopolysaccharide (FIG. 15). Format: in vivo, human. Particulars: blood challenged with 0.1 ng/ml lipopolysaccharide. The source says:
For measuring the amount of a particular RNA in a sample, we have used methods known to one of ordinary skill in the art to extract and quantify transcribed RNA from a sample with respect to a constituent of a Gene Expression Panel. (See detailed protocols below. Also see PCT application publication number WO 98/24935 herein incorporated by reference for RNA analysis protocols). Briefly, RNA is extracted from a sample such as a tissue, body fluid, or culture medium in which a population of a subject might be growing. For example, cells may be lysed and RNA eluted in a suitable solution in which to conduct a DNAse reaction. First strand synthesis may be performed using a reverse transcriptase. Gene amplification, more specifically quantitative PCR assays, can then conducted and the gene of interest size calibrated against a marker such as 18S rRNA (Hirayama et al., Blood 92, 1998: 46-52). Samples are measured in multiple duplicates, for example, 4 replicates. Relative quantitation of the mRNA is determined by the difference in threshhold cycles between the internal control and the gene of interest. In an embodiment of the invention, quantitative PCR is performed using amplification, reporting agents and instruments such as those supplied commercially by Applied Biosystems (Foster City, Calif.). Given a defined efficiency of amplification of target transcripts, the point (e.g., cycle number) that signal from amplified target template is detectable may be directly related to the amount of specific message transcript in the measured sample. Similarly, other quantifiable signals such as fluorescence, enzyme activity, disintegrations per minute, absorbance, etc., when correlated to a known concentration of target templates (e.g., a reference standard curve) or normalized to a standard with limited variability can be used to quantify the number of target templates in an unknown sample.
Specific RNAs are amplified using message specific primers or random primers. […]

Series [5] has as its system Inflammation Gene Expression Panel of Table 1. Particulars: studies have shown; some subjects; cited from earlier work.
For series [6] the test system is unchanged. In words: Inflammation index of a single subject with inflammatory bowel disease treated with Remicade (FIG. 24). It is filed as in vivo, human.
Text: as §1
FIG. 24 illustrates use of the inflammation index for assessment of a single subject suffering from inflammatory bowel disease, for whom treatment with Remicade was initiated in three doses. […] Again, the index, besides providing a measure of biological condition, is here used to measure the effectiveness of therapy (Remicade), as well as to provide a target for therapeutic intervention in terms of both dose and schedule.

Series [7] deals with IL1B. In words: Whole blood response to E. coli filtrate alone and with polymyxin B (FIG. 34). It is filed as cell-based, human. Particulars: polymyxin B added to E. coli filtrate. The source says:
FIGS. 27 through 41 illustrate the use of gene expression panels in early identification and monitoring of infectious disease. These figures plot the response, in expression products of the genes indicated, in whole blood, to the administration of various infectious agents or products associated with infectious agents. In each figure, the gene expression levels are “calibrated”, as that term is defined herein, in relation to baseline expression levels determined with respect to the whole blood prior to administration of the relevant infectious agent. In this respect the figures are similar in nature to various figures of our below-referenced patent application WO 01/25473 (for example, FIG. 15 therein). The concentration change is shown ratiometrically, and the baseline level of 1 for a particular gene locus corresponds to an expression level for such locus that is the same, monitored at the relevant time after addition of the infectious agent or other stimulus, as the expression level before addition of the stimulus. Ratiometric changes in concentration are plotted on a logarithmic scale. Bars below the unity line represent decreases in concentration and bars above the unity line represent increases in concentration, the magnitude of each bar indicating the magnitude of the ratio of the change. […]
The responses were monitored at 2, 6, and 24 hours after administration. […]

[8] abbreviates: 10 stable rheumatoid arthritis patients.

In the case of `CN(Cc1cnc2nc(N)nc(N)c2n1)c1ccc(C(=O)N[C@@H](CCC(=O)O)C(=O)O)cc1` [methotrexate], in series [1], the “inflammation index compared to normal” value is recorded as “elevated compared to normal”.

Regarding `C[C@]12C=CC(=O)C=C1CC[C@@H]1[C@@H]2C(=O)C[C@@]2(C)[C@H]1CC[C@]2(O)C(=O)CO` [prednisone], in series [2] (oral prednisone at 60 mg per day tapered to 10 mg per day), the acute inflammation index result is “goes up”. Further, the “expression of inflammation-related gene loci relative to baseline sample” value in series [3] (2 hr post single 60 mg oral dose) is “decreased expression of most of inflammation-related gene loci”; in series [3] (24 hr post single 60 mg oral dose, loci with reduced expression at 2 hours) it was “elevated gene expression levels”. The “gene expression of the 5 loci in relation to t=0” value in series [4] (24 hours post administration) was “inhibitory effect of the prednisone is no longer apparent”; in series [4] (two hours after single dose) it was “dramatically reduced gene expression”. Further, the “loci at which gene expression is higher than at t=0 (rebound effect)” value in series [4] (24 hours post administration) is 3 of the 5 loci.

On to `C[C@H]1C[C@@H]2[C@H]([C@@H](O)C[C@@]3(C)[C@H]2CC[C@]3(O)C(=O)COC(=O)CCC(=O)O)[C@@]2(C)C=CC(=O)C=C12` [solumedrol], for which, in series [2] (treatment with IV solumedrol at 1 gram per day), the acute inflammation index result is “falls rapidly”.

As for Enbrel, the “patients with inflammation index in the normal range” value in series [1] (setting [8]) is recorded as 80%. Further, in series [1], the “inflammation index compared to normal” value was “comes much closer to normal”.

For the molecule Remicade: another TNF inhibitor, in series [5], the “association with infections in studies” value is listed as “associated with serious infections in some subjects”. In addition, the “abnormally low inflammation index in two of the patients” value in series [1] (setting [8]) is reported as “suggesting an immunosuppressive response”. The “inflammation index compared to normal” value in series [1] is “all but one of the patients being treated with Remicade have an inflammation index at or below normal”. In addition, the inflammation index entry was “returned to the normal range” in series [6] (24 hours after the first treatment), “elevated” in series [6] (just prior to the second dose) and “in the normal range” in series [6] (prior to the third dose).

Regarding polymyxin B, the “effect on the response of IL1B locus to E. coli filtrate” value in series [7] is recorded as “did not affect the response”.
